{
  "source": "patent US20110053172A1",
  "about": "“ONE STEP NANOSENSOR FOR SINGLE AND MULTIDRUG RESISTANCE IN ACUTE CORONARY SYNDROME (ACS)” (UNIVERSITY OF CALCUTTA, priority 2009, published 2011)",
  "origin": "cited, not measured here",
  "details": "in comparison to aspirin; P=0.043",
  "data": [
    {"smiles": "COC(=O)[C@H](c1ccccc1Cl)N1CCc2sccc2C1", "note": "[clopidogrel]", "values": [
      {"measurement": "relative risk reduction in stroke, myocardial infarction, or ischaemic death", "result": 8.7, "unit": "%"}
    ]}
  ]
}
